Measurements reported in patent publication US4377594A, “Derivative of 4-(N-(substituted-benzylidene)amino-methyl cyclohexane-1-carboxylic acid” (Kureha Kagaku Kogyo Kabushiki Kaisha, priority 1980, dated 1983).
Structures can show the parent of a compound that is named as a salt. Where two headings read alike, the source gives them in different places.

Key:
female JCL-ICR mouse = assay: acute toxicity, peroral administration; settings: mouse, in vivo
Text: (§1) (3) Examination method for acute toxicity
(§2) Acute toxicity was examined by administering perorally an aqueous solution of each Specimen to female JCL-ICR mouse of 5 to 6 weeks after birth.
(§3) ^(3) Median lethal dose (LD50), that is, dose for getting 50% of
(§4) mice to death, in unit of mg per one kilogram of body weight of mouse.

[1] = tested on: Rabbit platelet rich plasma (PRP); platelet aggregation; assay: inhibitory effect on platelet aggregation (induced by sodium arachidonate); format: cell-based; settings: rabbit PRP 300,000/μl; sodium arachidonate tested at 400 μM; preincubated at 37° C. for 5 min
Experimental: (1) Examination method for inhibitory effect on platelet aggregation
Rabbit platelet rich plasma (PRP) was used for Aggregation Tests. PRP was prepared by centrifugation of blood collected from the ear vein of Rabbit and diluted into number-concentration 300,000/μl with platelet poor plasma. Platelet aggregation was induced by Sodium Arachidonate and monitored (measured) with a four channel platelet aggregation Tracer PAT-4A (Niko Bioscience Co., Japan). Aggregation Tracer tube contaning 230 μl PRP was preincubated at 37° C. for 5 min with each Specimen.
^(1) The minimum concentration (μM) of each Specimen for inhibitin
completely (100%) the platelet aggregating effect by sodium arachidonate

[2] = tested on: Rat's polynuclear leukocyte migration; assay: inhibitory effect on polynuclear leukocyte migration (Boyden method); format: cell-based; settings: read-out: Inhibition rate of polynuclear leukocyte migration
Experimental: (2) Examination method for inhibitory effect on polynuclear leukocyte migration
Rat's polynuclear leukocyte migration was examined by Boyden method (refer to Japanese J. Clin. Med., 27(9), 172 (1969)) as follows; a mixture of 10 parts by volume of culture filtrate of E. coli and one part by volume of serum was incubated at 37° C. for one hour and diluted into 5-times volume with physiological salt solution, and the mixture obtained was used as an attractant. After preincubating polynuclear leukocyte suspension with each specimen for 10 min, migration of polynuclear leukocytes was examined.
^(2) The average value of inhibition rate (%) of polynuclear leukocyt
migration at each concentration (μM) of each Specimen.

[3] = acute toxicity, peroral administration; settings: in vivo, po; peroral, aqueous solution, female JCL-ICR mouse 5 to 6 weeks
Text: as §1, §2, §3, §4

[4] = 1 μM, average value, preincubation 10 min, rat
[5] = 10 μM, average value, preincubation 10 min, rat
[6] = 100 μM, average value, preincubation 10 min, rat
[7] = 1000 μM, average value, preincubation 10 min, rat

| SMILES | acute toxicity (in words) (female JCL-ICR mouse) | Platelet aggregation ID100 (minimum concentration for inhibiting completely (100%) the platelet aggregating effect by sodium arachidonate) [1] | inhibition at 1 µM [2, 4] | inhibition at 10 µM [2, 5] | inhibition at 100 µM [2, 6] | inhibition at 1000 µM [2, 7] | LD50 [3] | inhibition at 1 µM ([2]; Rattus norvegicus) | inhibition at 10 µM ([2]; Rattus norvegicus) | inhibition at 100 µM ([2]; Rattus norvegicus) | inhibition at 1000 µM ([2]; Rattus norvegicus) |
| --- | --- | --- | --- | --- | --- | --- | --- | --- | --- | --- | --- |
| COc1ccc(C=NC[C@H]2CC[C@H](C(=O)O)CC2)cc1OC [Example 7 sodium salt, sodium salt of trans-4-[N-(3',4'-dimethoxybenzylidene)aminomethyl]cyclohexane-1-carboxylic acid] | low acute toxicity |  |  |  |  |  |  |  |  |  |  |
| COc1cc(C=NC[C@H]2CC[C@H](C(=O)O)CC2)cc(OC)c1OC [Example 8 sodium salt, trans-4-[N-(3',4',5'-trimethoxybenzylidene)aminomethyl]cyclohexane-1-carboxylic acid] | low acute toxicity |  |  |  |  |  |  |  |  |  |  |
| COc1cc(C=NC[C@H]2CC[C@H](C(=O)O)CC2)ccc1O [Example 9 sodium salt, trans-4-[N-(3'-methoxy-4'-hydroxybenzylidene)aminomethyl]cyclohexane-1-carboxylic acid] | low acute toxicity |  |  |  |  |  |  |  |  |  |  |
| O=C(O)[C@H]1CC[C@H](CN=Cc2ccc(O)cc2O)CC1 [III] |  | > 1000 µM | 0% | 12% | 42% | 92% | > 3000 mg/kg |  |  |  |  |
| O=C(O)[C@H]1CC[C@H](CN=Cc2cccc(O)c2O)CC1 [II] |  |  | 0% | 25% | 66% | 100% | > 3000 mg/kg |  |  |  |  |
| COc1ccccc1C=NC[C@H]1CC[C@H](C(=O)O)CC1 [IV] |  |  | 0% | 0% | 27% | 94% | > 3000 mg/kg |  |  |  |  |
| O=C(O)[C@H]1CC[C@H](CN=Cc2ccccc2O)CC1 [I] |  | > 1000 µM | 0% | 0% | 39% | 93% | ~2000 mg/kg |  |  |  |  |
| CN1CCCN(C(c2ccccc2)c2ccc(Cl)cc2)CC1 (stereo not drawn) [VI] |  | > 1000 µM |  |  |  |  | 350 mg/kg | 15% | 48% | 80% | 100% |
| COc1ccc2c(c1)c(CC(=O)O)c(C)n2C(=O)c1ccc(Cl)cc1 [V] |  |  |  |  |  |  | 30 mg/kg | 0% | 0% | 25% | 79% |
